# In paper PMC10879502, “Linking ATP and allosteric sites to achieve superadditive binding with bivalent EGFR kinase inhibitors” (Communications Chemistry, 2024):
# Key:
# CAMK2D = target: T1, CAMK2D (Homo sapiens, UniProt Q13557); test: KINOMEscan; assay type: binding; details: 1 μM
# T1 construct: purchased Eurofins DiscoverX Corporation (KINOMEscan)
# MAK = target: T2, MAK (Homo sapiens, UniProt P20794); test: KINOMEscan; assay type: binding; details: 1 μM
# T2 construct: purchased Eurofins DiscoverX Corporation
# PIM3 = PIM3 (Homo sapiens, UniProt Q86V86); test: KINOMEscan; assay type: binding; details: 1 μM
# JNK3 = target: T3, JNK3 (Homo sapiens, UniProt P53779); test: KINOMEscan; assay type: binding; details: 1 μM
# T3 construct: purchased Eurofins DiscoverX (KINOMEscan)
# FLT3(D835Y) = FLT3(D835Y) (Homo sapiens, UniProt P36888, D835Y); test: KINOMEscan; assay type: binding; details: 1 μM
# [1] = test system: EGFR phosphorylation (pY1068) in HCC827 (exon19 delE746-A750) cells; test: Western blot; assay type: cell-based, human; details: HCC827, 6 h
# Method: (§1) H1975, H3255, H3255GR and HCC827 lung adenocarcinoma cells (obtained from Dr. Pasi Jänne in Dana-Farber Cancer Institute, 2022) were cultured in RPMI 1640 media (Corning, 1004-CV) supplemented with 10% FBS (Tissue Culture Biologicals, 35-010-CV) and 1% penicillin-streptomycin (P/S, Corning, 30-002-CI). All cell lines were tested negative for Mycoplasma using Myco-Sniff-Rapid™ Mycoplasma Luciferase Detection Kit Plus PCR Primer Set (MP biomedicals, 0930504-CF) and were passaged and/or used for no longer than 4 weeks for all experiments H1975 and HCC-827 cells were seeded in 6-well plates with 400,000 cells per well and incubated overnight. H3255 and H3255GR cells were seeded in 12-well plates with 200,000 cells per well and were grown to confluency after 48 h. Culture medium was removed, cells washed with PBS, and lysed with lysis buffer containing 5 M NaCl, 1 M TRIS pH 8.0, 10% SDS, 10% Triton X-100 and a tablet of protease and phosphatase inhibitor. Protein lysate concentration was analyzed using Pierce BCA kit (ThermoFisher, 23225). Protein samples (10 µg) were resolved on hand-cast Criterion Tris-HCl protein gels. Primary antibodies used; phospho-EGFR (Tyr1068; #2234, 1:1,000), EGFR (#4267; 1:1,000), phospho-AKT (Ser473; #4060, 1:1,000), AKT (#9272, 1:1,000), phospho-ERK1/2 (Thr202/Tyr204; #4370, 1:1,000), and ERK1/2 (#4695, 1:1,000) antibodies; were purchased from Cell Signaling Technology. Secondary Goat anti-rabbit IgG starbright blue 700 (Biorad, 64484700) and Anti-tubulin hFAB Rhodamine Tubulin (Bio-Rad, 64512248). Western blots were visualized with the ChemiDoc MP imager (Bio-Rad) utilizing the Image Lab Touch Software (version 2.4.0.03). All Western blot images are representatives of at least 3 independent replicate experiments.
# [2] = test system: EGFR phosphorylation (pY1068) in H3255GR (LRTM) cells; test: Western blot; assay type: cell-based, human; details: 6 h
# Method: as §1
# [3] = test system: EGFR phosphorylation (pY1068) in H3255 (LR) cells; test: Western blot; assay type: cell-based, human; details: H3255, 6 h
# Method: as §1
# FLT3(N841I) = target: T4, FLT3(N841I) (Homo sapiens, UniProt P36888, N841I); test: KINOMEscan; assay type: binding; details: 1 μM
# T4 construct: purchased Eurofins DiscoverX Corporation
# PRKCE = PRKCE (Homo sapiens, UniProt Q02156); test: KINOMEscan; assay type: binding; details: 1 μM
# PRKCE, sequence (Q02156 whole entry): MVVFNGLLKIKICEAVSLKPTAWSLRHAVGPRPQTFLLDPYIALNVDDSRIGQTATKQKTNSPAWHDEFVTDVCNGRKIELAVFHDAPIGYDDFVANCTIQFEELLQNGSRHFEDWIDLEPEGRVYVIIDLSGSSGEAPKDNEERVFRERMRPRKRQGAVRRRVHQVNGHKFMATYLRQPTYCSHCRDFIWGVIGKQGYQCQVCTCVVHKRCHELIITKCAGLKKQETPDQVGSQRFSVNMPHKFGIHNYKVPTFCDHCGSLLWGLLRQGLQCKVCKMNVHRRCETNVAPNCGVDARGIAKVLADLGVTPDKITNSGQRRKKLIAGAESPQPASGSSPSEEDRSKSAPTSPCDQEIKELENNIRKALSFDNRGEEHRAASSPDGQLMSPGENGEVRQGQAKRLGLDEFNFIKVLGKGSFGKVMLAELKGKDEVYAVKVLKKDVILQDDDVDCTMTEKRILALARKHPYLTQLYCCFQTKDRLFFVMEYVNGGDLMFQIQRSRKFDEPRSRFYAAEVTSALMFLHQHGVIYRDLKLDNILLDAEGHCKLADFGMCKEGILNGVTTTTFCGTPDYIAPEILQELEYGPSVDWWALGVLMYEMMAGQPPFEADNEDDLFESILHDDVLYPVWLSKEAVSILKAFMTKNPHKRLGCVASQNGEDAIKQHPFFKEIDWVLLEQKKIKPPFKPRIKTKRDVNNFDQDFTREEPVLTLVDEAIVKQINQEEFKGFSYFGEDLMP
# YANK2 = YANK2 (Homo sapiens, UniProt Q9NY57); test: KINOMEscan; assay type: binding; details: 1 μM
# TLK1 = target: T5, TLK1 (Homo sapiens, UniProt Q9UKI8); test: KINOMEscan; assay type: binding; details: 1 μM
# T5 construct: purchased Eurofins DiscoverX Corporation
# T5 sequence (Q9UKI8 whole entry): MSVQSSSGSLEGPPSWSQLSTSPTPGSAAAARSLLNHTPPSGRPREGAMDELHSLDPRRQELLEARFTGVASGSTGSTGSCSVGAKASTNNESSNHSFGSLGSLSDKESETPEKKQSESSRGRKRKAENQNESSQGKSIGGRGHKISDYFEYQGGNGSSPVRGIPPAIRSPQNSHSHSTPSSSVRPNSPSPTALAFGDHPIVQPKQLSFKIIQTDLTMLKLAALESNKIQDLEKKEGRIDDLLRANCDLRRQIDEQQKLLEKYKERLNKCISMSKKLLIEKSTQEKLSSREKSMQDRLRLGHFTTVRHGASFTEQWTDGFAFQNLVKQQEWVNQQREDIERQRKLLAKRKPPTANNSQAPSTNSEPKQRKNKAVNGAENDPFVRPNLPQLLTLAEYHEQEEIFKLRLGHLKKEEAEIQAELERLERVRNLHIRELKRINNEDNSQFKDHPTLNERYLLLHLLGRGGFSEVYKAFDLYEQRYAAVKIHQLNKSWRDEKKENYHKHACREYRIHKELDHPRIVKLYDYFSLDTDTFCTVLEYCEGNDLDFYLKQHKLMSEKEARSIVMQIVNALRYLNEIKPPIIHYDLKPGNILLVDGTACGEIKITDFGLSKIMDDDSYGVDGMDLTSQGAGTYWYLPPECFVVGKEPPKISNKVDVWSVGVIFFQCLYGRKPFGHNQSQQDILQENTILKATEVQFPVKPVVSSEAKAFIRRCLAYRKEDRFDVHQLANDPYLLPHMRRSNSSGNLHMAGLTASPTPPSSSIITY
# TIE1 = target: T6, TIE1 (Homo sapiens, UniProt P35590); test: KINOMEscan; assay type: binding; details: 1 μM
# T6 construct: purchased Eurofins DiscoverX Corporation
# DAPK2 = target: T7, DAPK2 (Homo sapiens, UniProt Q9UIK4); test: KINOMEscan; assay type: binding; details: 1 μM
# T7 construct: purchased Eurofins DiscoverX Corporation
# MYLK4 = target: T8, MYLK4 (Homo sapiens, UniProt Q86YV6); test: KINOMEscan; assay type: binding; details: 1 μM
# T8 construct: purchased Eurofins DiscoverX Corporation
# PRKD2 = PRKD2 (Homo sapiens, UniProt Q9BZL6); test: KINOMEscan; assay type: binding; details: 1 μM
# PLK1 = PLK1 (Homo sapiens, UniProt P53350); test: KINOMEscan; assay type: binding; details: 1 μM
# PAK2 = PAK2 (Homo sapiens, UniProt Q13177); test: KINOMEscan; assay type: binding; details: 1 μM
# [4] = target: T9, ABL1(H396P)-phosphorylated (Homo sapiens, UniProt P00519, H396P); test: KINOMEscan; assay type: binding; details: 1 μM
# T9 construct: purchased Eurofins DiscoverX Corporation
# CDKL5 = CDKL5 (Homo sapiens, UniProt O76039); test: KINOMEscan; assay type: binding; details: 1 μM
# GSK3B = target: T10, GSK3B (Homo sapiens, UniProt P49841); test: KINOMEscan; assay type: binding; details: 1 μM
# T10 construct: purchased Eurofins DiscoverX Corporation
# T10 sequence (P49841 whole entry): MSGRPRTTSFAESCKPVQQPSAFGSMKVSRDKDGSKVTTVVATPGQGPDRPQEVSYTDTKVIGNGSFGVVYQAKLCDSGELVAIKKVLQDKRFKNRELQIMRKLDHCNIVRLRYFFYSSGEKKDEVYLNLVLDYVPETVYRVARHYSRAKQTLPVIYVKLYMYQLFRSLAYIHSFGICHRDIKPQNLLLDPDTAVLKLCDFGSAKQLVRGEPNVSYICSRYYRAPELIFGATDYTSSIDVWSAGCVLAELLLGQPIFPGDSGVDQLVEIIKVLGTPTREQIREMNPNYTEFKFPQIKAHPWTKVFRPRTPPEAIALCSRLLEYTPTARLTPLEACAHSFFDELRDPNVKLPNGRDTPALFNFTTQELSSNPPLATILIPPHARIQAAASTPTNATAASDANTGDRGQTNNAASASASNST
# DDR2 = target: T11, DDR2 (Homo sapiens, UniProt Q16832); test: KINOMEscan; assay type: binding; details: 1 μM
# T11 construct: purchased Eurofins DiscoverX Corporation
# MLK3 = target: T12, MLK3 (Homo sapiens, UniProt Q16584); test: KINOMEscan; assay type: binding; details: 1 μM
# T12 construct: purchased Eurofins DiscoverX Corporation
# MEK4 = target: T13, MEK4 (Homo sapiens, UniProt P45985); test: KINOMEscan; assay type: binding; details: 1 μM
# T13 construct: purchased Eurofins DiscoverX Corporation
# T13 sequence (P45985 whole entry): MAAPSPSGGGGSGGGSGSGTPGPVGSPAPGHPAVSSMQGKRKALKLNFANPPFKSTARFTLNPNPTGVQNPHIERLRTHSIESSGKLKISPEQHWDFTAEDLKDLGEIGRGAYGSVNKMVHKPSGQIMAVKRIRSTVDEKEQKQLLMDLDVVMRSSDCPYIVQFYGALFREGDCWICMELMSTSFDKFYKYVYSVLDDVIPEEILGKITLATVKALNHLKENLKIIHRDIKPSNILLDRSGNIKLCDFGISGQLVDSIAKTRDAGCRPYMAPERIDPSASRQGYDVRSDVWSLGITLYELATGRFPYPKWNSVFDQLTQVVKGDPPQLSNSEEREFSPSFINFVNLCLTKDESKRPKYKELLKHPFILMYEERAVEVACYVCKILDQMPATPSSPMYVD
# TTK = TTK (Homo sapiens, UniProt P33981); test: KINOMEscan; assay type: binding; details: 1 μM
# TTK, sequence (P33981 whole entry): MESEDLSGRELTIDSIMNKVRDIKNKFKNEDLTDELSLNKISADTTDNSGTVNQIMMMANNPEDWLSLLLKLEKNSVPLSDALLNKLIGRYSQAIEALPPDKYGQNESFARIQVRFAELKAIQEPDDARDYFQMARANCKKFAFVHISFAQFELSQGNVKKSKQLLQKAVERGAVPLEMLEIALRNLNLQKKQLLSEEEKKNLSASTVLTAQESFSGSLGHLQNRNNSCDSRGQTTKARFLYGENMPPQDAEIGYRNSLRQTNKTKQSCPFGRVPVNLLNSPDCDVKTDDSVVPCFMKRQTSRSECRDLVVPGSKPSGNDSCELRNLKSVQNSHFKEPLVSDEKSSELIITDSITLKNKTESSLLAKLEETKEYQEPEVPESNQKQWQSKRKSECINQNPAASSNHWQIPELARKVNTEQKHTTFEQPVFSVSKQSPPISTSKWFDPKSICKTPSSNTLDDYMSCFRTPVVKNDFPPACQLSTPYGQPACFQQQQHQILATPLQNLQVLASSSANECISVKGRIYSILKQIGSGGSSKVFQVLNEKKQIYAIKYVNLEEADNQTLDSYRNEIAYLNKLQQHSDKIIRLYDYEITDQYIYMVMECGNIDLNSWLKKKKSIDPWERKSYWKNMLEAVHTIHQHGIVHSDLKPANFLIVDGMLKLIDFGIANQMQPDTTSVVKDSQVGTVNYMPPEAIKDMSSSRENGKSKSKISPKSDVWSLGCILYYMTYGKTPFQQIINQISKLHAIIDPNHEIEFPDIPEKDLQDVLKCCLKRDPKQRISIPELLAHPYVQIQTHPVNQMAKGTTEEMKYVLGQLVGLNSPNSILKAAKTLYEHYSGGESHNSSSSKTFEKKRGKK
# SRC = SRC (Homo sapiens, UniProt P12931); test: KINOMEscan; assay type: binding; details: 1 μM
# MEK6 = target: T14, MEK6 (Homo sapiens, UniProt P52564); test: KINOMEscan; assay type: binding; details: 1 μM
# T14 construct: purchased Eurofins DiscoverX Corporation
# BRSK1 = target: T15, BRSK1 (Homo sapiens, UniProt Q8TDC3); test: KINOMEscan; assay type: binding; details: 1 μM
# T15 construct: purchased Eurofins DiscoverX Corporation (KINOMEscan)
# T15 sequence (Q8TDC3 whole entry): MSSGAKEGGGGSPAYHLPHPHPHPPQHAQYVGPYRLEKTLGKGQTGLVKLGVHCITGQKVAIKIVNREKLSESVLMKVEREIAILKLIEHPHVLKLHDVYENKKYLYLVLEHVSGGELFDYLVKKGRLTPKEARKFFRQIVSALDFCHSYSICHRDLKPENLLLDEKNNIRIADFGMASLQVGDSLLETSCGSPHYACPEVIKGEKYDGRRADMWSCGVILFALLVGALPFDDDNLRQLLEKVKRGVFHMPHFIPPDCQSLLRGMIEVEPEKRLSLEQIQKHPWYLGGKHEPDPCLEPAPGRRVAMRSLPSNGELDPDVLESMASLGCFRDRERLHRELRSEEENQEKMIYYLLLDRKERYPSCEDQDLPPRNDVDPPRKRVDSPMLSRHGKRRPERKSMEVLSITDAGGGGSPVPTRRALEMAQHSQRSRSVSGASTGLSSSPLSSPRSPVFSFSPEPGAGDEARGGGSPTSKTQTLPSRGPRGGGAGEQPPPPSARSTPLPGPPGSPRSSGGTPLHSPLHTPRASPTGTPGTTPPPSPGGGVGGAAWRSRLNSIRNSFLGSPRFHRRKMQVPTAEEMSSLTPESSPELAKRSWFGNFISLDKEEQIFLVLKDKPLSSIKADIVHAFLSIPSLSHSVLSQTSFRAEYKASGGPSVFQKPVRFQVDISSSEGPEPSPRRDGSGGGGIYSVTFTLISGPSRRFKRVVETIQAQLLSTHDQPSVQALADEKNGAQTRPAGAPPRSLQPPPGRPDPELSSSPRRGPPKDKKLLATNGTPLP
# NEK6 = NEK6 (Homo sapiens, UniProt Q9HC98); test: KINOMEscan; assay type: binding; details: 1 μM
# IKK-alpha = target: T16, IKK-alpha (Homo sapiens, UniProt O15111); test: KINOMEscan; assay type: binding; details: 1 μM
# T16 construct: purchased Eurofins DiscoverX (KINOMEscan)
# T1 sequence (Q13557 whole entry): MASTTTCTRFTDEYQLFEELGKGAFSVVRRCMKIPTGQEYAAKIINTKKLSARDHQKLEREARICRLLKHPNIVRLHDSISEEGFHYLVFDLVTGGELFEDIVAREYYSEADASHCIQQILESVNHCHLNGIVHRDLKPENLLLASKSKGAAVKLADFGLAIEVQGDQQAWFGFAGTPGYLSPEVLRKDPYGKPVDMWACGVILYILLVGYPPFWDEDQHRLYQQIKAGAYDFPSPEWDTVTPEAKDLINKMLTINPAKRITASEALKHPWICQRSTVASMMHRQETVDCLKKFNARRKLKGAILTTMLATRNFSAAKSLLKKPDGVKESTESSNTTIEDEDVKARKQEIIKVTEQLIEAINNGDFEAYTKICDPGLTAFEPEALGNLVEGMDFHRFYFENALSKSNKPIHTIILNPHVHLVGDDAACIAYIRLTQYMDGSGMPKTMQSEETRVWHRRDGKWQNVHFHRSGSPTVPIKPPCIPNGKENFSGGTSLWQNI
compound,measurement,setting,value
C=CC(=O)Nc1ccc(OC)c(Nc2cc(-c3[nH]c(CC)nc3-c3cccc(NC(=O)c4cccc5c4NC(=O)c4ccccc4N5)c3)ccn2)c1 [Compound 4],POC,CAMK2D,88% of control
same,POC,MAK,89% of control
same,POC,PIM3,100% of control
same,POC,JNK3,53% of control
same,POC,FLT3(D835Y),96% of control
same,suppression of EGFR pY1068 phosphorylation,[1],analogous suppression of EGFR pY1068 phosphorylation
same,suppression of EGFR pY1068 phosphorylation,[2],analogous suppression of EGFR pY1068 phosphorylation
same,suppression of EGFR pY1068 phosphorylation,[3],analogous suppression of EGFR pY1068 phosphorylation
same,POC,FLT3(N841I),97% of control
same,POC,PRKCE,100% of control
same,POC,YANK2,63% of control
same,POC,TLK1,87% of control
same,POC,TIE1,100% of control
same,POC,DAPK2,100% of control
same,POC,MYLK4,95% of control
same,POC,PRKD2,62% of control
same,POC,PLK1,50% of control
same,POC,PAK2,100% of control
same,POC,[4],74% of control
same,POC,CDKL5,98% of control
same,POC,GSK3B,100% of control
same,POC,DDR2,100% of control
same,POC,MLK3,97% of control
same,POC,MEK4,100% of control
same,POC,TTK,72% of control
same,POC,SRC,73% of control
same,POC,MEK6,73% of control
same,POC,BRSK1,100% of control
same,POC,NEK6,100% of control
same,POC,IKK-alpha,100% of control
